Activity calls are given as the source filed them. No cut-off for these calls is given here.
Key:
[1] = target: T1, DNA topoisomerase 1 (Homo sapiens) (UniProt P11387); assay: Induction of human DNA topoisomerase 1-mediated DNA cleavage at 1 to 10 uM by polyacrylamide gel electrophoresis
T1 sequence (whole entry): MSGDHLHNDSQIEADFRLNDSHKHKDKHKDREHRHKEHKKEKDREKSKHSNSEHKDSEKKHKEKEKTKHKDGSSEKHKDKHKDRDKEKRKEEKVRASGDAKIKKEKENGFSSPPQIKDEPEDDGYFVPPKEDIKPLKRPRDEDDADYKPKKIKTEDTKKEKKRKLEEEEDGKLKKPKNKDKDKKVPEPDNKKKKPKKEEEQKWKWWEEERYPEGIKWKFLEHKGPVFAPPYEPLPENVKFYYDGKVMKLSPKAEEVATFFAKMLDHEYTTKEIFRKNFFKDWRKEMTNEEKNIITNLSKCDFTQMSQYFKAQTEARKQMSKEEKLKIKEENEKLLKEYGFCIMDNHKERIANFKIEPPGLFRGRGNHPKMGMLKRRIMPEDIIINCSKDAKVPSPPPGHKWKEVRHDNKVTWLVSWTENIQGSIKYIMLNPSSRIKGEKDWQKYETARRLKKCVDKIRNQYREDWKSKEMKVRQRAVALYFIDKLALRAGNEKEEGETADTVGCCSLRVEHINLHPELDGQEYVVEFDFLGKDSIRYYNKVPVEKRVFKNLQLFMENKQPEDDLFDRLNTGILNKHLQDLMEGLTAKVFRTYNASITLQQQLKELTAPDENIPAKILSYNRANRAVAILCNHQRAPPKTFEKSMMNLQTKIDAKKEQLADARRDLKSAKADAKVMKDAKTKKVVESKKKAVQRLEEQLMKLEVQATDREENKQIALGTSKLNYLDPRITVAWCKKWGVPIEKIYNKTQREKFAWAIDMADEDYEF

[2] = target: T1, DNA topoisomerase 1 (Homo sapiens); assay: Reversal of drug-stabilized human DNA topoisomerase 1-DNA binary complex at 5 uM within 5 mins by polyacrylamide gel electrophoresis in presence of 0.35 M NaCl
CCRF-CEM [3] = assay: Cell cycle arrest in human CCRF-CEM cells assessed as accumulation at G2/M phase at 10 uM treated for 3 hrs followed by drug washout and 15 hrs incubation in drug free medium by flow cytometry; assay type: functional
CCRF-CEM [4] = assay: Cell cycle arrest in human CCRF-CEM cells assessed as accumulation at G0 phase at 0.1 uM treated for 3 hrs measured for 15 hrs after nocodazole treatment by flow cytometry in presence of mitotic inhibitor nocodazole; assay type: functional
CCRF-CEM [5] = assay: Cell cycle arrest in human CCRF-CEM cells assessed as accumulation at G0 phase at 10 uM treated for 3 hrs measured for 15 hrs after nocodazole treatment by flow cytometry in presence of mitotic inhibitor nocodazole; assay type: functional
CCRF-CEM [6] = assay: Cell cycle arrest in human CCRF-CEM cells assessed as accumulation at subG1 phase at 0.1 uM treated for 3 hrs followed by drug washout and 15 hrs incubation in drug free medium by flow cytometry; assay type: functional
CCRF-CEM [7] = assay: Cell cycle arrest in human CCRF-CEM cells assessed as accumulation at G2/M phase at 1 uM treated for 3 hrs followed by drug washout and 15 hrs incubation in drug free medium by flow cytometry; assay type: functional
CCRF-CEM [8] = assay: Cell cycle arrest in human CCRF-CEM cells assessed as accumulation at G2/M phase at 0.1 uM treated for 3 hrs followed by drug washout and 15 hrs incubation in drug free medium by flow cytometry; assay type: functional
CCRF-CEM [9] = assay: Cell cycle arrest in human CCRF-CEM cells assessed as accumulation at S phase at 0.1 uM treated for 3 hrs measured for 15 hrs after nocodazole treatment by flow cytometry in presence of mitotic inhibitor nocodazole; assay type: functional
CCRF-CEM [10] = assay: Cytotoxicity against p38-proficient human CCRF-CEM cells after 3 days by MTT assay; assay type: functional, cell-based; conditions: 72 h
CCRF-CEM [11] = assay: Cell cycle arrest in human CCRF-CEM cells assessed as accumulation at S phase at 1 uM treated for 3 hrs measured for 15 hrs after nocodazole treatment by flow cytometry in presence of mitotic inhibitor nocodazole; assay type: functional
CCRF-CEM [12] = assay: Cell cycle arrest in human CCRF-CEM cells assessed as accumulation at S phase at 10 uM treated for 3 hrs measured for 15 hrs after nocodazole treatment by flow cytometry in presence of mitotic inhibitor nocodazole; assay type: functional
CCRF-CEM [13] = assay: Cell cycle arrest in human CCRF-CEM cells assessed as accumulation at G2/M phase at 0.1 uM treated for 3 hrs measured for 15 hrs after nocodazole treatment by flow cytometry in presence of mitotic inhibitor nocodazole; assay type: functional
CCRF-CEM [14] = assay: Cell cycle arrest in human CCRF-CEM cells assessed as accumulation at G2/M phase at 1 uM treated for 3 hrs measured for 15 hrs after nocodazole treatment by flow cytometry in presence of mitotic inhibitor nocodazole; assay type: functional
CCRF-CEM [15] = assay: Cell cycle arrest in human CCRF-CEM cells assessed as accumulation at G2/M phase at 10 uM treated for 3 hrs measured for 15 hrs after nocodazole treatment by flow cytometry in presence of mitotic inhibitor nocodazole; assay type: functional
CCRF-CEM [16] = assay: Cell cycle arrest in human CCRF-CEM cells assessed as accumulation at subG1 phase at 0.1 uM treated for 3 hrs measured for 15 hrs after nocodazole treatment by flow cytometry in presence of mitotic inhibitor nocodazole; assay type: functional
CCRF-CEM [17] = assay: Cell cycle arrest in human CCRF-CEM cells assessed as accumulation at subG1 phase at 1 uM treated for 3 hrs measured for 15 hrs after nocodazole treatment by flow cytometry in presence of mitotic inhibitor nocodazole; assay type: functional
CCRF-CEM [18] = assay: Cell cycle arrest in human CCRF-CEM cells assessed as accumulation at subG1 phase at 10 uM treated for 3 hrs measured for 15 hrs after nocodazole treatment by flow cytometry in presence of mitotic inhibitor nocodazole; assay type: functional
CCRF-CEM [19] = assay: Cell cycle arrest in human CCRF-CEM cells assessed as accumulation at G0 phase at 1 uM treated for 3 hrs measured for 15 hrs after nocodazole treatment by flow cytometry in presence of mitotic inhibitor nocodazole; assay type: functional
CCRF-CEM [20] = assay: Cell cycle arrest in human CCRF-CEM cells assessed as accumulation at G0 phase at 0.1 uM treated for 3 hrs followed by drug washout and 15 hrs incubation in drug free medium by flow cytometry; assay type: functional
CCRF-CEM [21] = assay: Cell cycle arrest in human CCRF-CEM cells assessed as accumulation at G0 phase at 1 uM treated for 3 hrs followed by drug washout and 15 hrs incubation in drug free medium by flow cytometry; assay type: functional
CCRF-CEM [22] = assay: Cell cycle arrest in human CCRF-CEM cells assessed as accumulation at G0 phase at 10 uM treated for 3 hrs followed by drug washout and 15 hrs incubation in drug free medium by flow cytometry; assay type: functional
CCRF-CEM [23] = assay: Cell cycle arrest in human CCRF-CEM cells assessed as accumulation at subG1 phase at 1 uM treated for 3 hrs followed by drug washout and 15 hrs incubation in drug free medium by flow cytometry; assay type: functional
CCRF-CEM [24] = assay: Cell cycle arrest in human CCRF-CEM cells assessed as accumulation at subG1 phase at 10 uM treated for 3 hrs followed by drug washout and 15 hrs incubation in drug free medium by flow cytometry; assay type: functional
CCRF-CEM [25] = assay: Cell cycle arrest in human CCRF-CEM cells assessed as accumulation at S phase at 0.1 uM treated for 3 hrs followed by drug washout and 15 hrs incubation in drug free medium by flow cytometry; assay type: functional
CCRF-CEM [26] = assay: Cell cycle arrest in human CCRF-CEM cells assessed as accumulation at S phase at 1 uM treated for 3 hrs followed by drug washout and 15 hrs incubation in drug free medium by flow cytometry; assay type: functional
CCRF-CEM [27] = assay: Cell cycle arrest in human CCRF-CEM cells assessed as accumulation at S phase at 10 uM treated for 3 hrs followed by drug washout and 15 hrs incubation in drug free medium by flow cytometry; assay type: functional

| Structure (SMILES) | Activity [1] | Activity [2] | Activity (CCRF-CEM [3]) | Activity (CCRF-CEM [4]) | Activity (CCRF-CEM [5]) | Activity (CCRF-CEM [6]) | Activity (CCRF-CEM [7]) | Activity (CCRF-CEM [8]) | Activity (CCRF-CEM [9]) | IC50 (CCRF-CEM [10]) | Activity (CCRF-CEM [11]) | Activity (CCRF-CEM [12]) | Activity (CCRF-CEM [13]) | Activity (CCRF-CEM [14]) | Activity (CCRF-CEM [15]) | Activity (CCRF-CEM [17]) | Activity (CCRF-CEM [19]) | Activity (CCRF-CEM [21]) | Activity (CCRF-CEM [23]) | Activity (CCRF-CEM [26]) | further results |
| --- | --- | --- | --- | --- | --- | --- | --- | --- | --- | --- | --- | --- | --- | --- | --- | --- | --- | --- | --- | --- | --- |
| CO[n+]1cc2c(c3ccccc31)C(=O)c1[nH]c3ccccc3c1C2=O | 11% | Active | – | – | – | – | – | – | – | – | – | – | – | – | – | – | – | – | – | – | – |
| O=C1c2c[n+]([O-])c3ccccc3c2C(=O)c2[nH]c3ccccc3c21 [CALOTHRIXIN A] | 18% | Active | 23.6% | 8.3% | 13% | 10.3% | 19% | 19.4% | 4% | 0.2 µM | 8.7% | 7.5% | 16.8% | 29.5% | 37% | 4.2% | 13.3% | 47.3% | 16% | 15.3% | Activity (CCRF-CEM [16]): 7.7%; Activity (CCRF-CEM [18]): 2.1%; Activity (CCRF-CEM [20]): 51.4%; Activity (CCRF-CEM [22]): 50.1%; Activity (CCRF-CEM [24]): 9.1%; Activity (CCRF-CEM [25]): 17.3%; Activity (CCRF-CEM [27]): 15.3% |
| O=C1c2[nH]c3ccccc3c2C(=O)c2cnc3ccccc3c21 [CALOTHRIXIN B] | 24% | Active | 18.6% | 25.3% | 7.7% | 7.5% | 16.5% | 17.3% | 4.5% | 1.05 µM | 4.8% | 4.6% | 61.5% | 18.8% | 18.2% | 4.6% | 7.4% | 55.6% | 7.9% | 18.2% | Activity (CCRF-CEM [16]): 6.2%; Activity (CCRF-CEM [18]): 6.4%; Activity (CCRF-CEM [20]): 55.6%; Activity (CCRF-CEM [22]): 51.4%; Activity (CCRF-CEM [24]): 11.2%; Activity (CCRF-CEM [25]): 17.6%; Activity (CCRF-CEM [27]): 17% |
| CC[C@@]1(O)C(=O)OCc2c1cc1n(c2=O)Cc2cc3ccccc3nc2-1 [CAMPTOTHECIN] | – | – | – | – | – | – | 28.4% | – | – | 0.04 µM | 10.3% | – | – | 21.7% | – | 17.5% | 23.6% | 34.6% | 18% | 15.5% | – |
| C[n+]1cc2c(c3ccccc31)C(=O)c1[nH]c3ccccc3c1C2=O.[I-] [N-METHYLCALOTHRIXIN B] | 11% | Active | 19% | 5.1% | 11.6% | 9.8% | 19.6% | 20.2% | 3.2% | 5.13 µM | 4.9% | 11.3% | 18.8% | 20.1% | 21.7% | 5.4% | 6.9% | 51% | 10.6% | 17% | Activity (CCRF-CEM [16]): 3.7%; Activity (CCRF-CEM [18]): 6.9%; Activity (CCRF-CEM [20]): 50.3%; Activity (CCRF-CEM [22]): 51.7%; Activity (CCRF-CEM [24]): 11.8%; Activity (CCRF-CEM [25]): 17.8%; Activity (CCRF-CEM [27]): 15.1% |
